Assay results published in paper doi:10.1101/2022.04.02.486822v1 (biorxiv, 2022).

Target: T1, EcGhrA (Escherichia coli, UniProt P75913)
T1 sequence (P75913 1-312): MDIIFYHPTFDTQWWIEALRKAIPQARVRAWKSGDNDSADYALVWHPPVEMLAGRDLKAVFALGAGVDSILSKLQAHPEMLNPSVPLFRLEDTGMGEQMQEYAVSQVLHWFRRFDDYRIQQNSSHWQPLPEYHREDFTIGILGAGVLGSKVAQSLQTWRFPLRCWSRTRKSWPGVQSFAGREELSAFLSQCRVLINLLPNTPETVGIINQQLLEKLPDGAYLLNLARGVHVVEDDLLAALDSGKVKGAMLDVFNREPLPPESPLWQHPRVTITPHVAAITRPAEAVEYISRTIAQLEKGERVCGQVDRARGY
Experiment: NADPH oxidation at […] nm, substrate inhibition fit
Assay type: biochemical
Conditions: 200 µM NADPH, 50 mM HEPES, pH 7.5, 22 °C

Compound | KI [mM]
O=CC(=O)O [compound 6, glyoxylate] | 1.5 ± 1.1
O=C(O)CC(=O)C(=O)O [compound 7, oxaloacetate] | 52 ± 15
